Values quoted from earlier work as cited in US7431914B2, “Contrast agent” (GE Healthcare AS, priority 2003, dated 2008).

Settings: both the drug and the chelate conjugate

excrete through the liver: more than 80%
SMILES: CCCCc1nc(Cl)c(CO)n1Cc1ccc(-c2ccccc2-c2nn[nH]n2)cc1 [Losartan]
